Tested on: citric acid-induced cough responses
Assay: Antitussive activity against citric acid aerosol-induced cough in conscious guinea-pigs
Format: in vivo, guinea-pig
Settings: aerosol pre-treatment at 5.0 mg/ml for 5 minutes immediately before citric acid (1M) exposure, vehicle 25% ethanol, 15 minute observation period
Source text: The following method is one of the general methods available to determine the antitussive activity of the compounds of the present invention.
Male albino Dunkin-Hartley strain guinea-pigs (weight 300-400 g) can be obtained from various commercial suppliers.
The method is a modification of that described by Adcock J. J., Schneider C. and Smith T. W., “Effects of Morphine and a Novel Opioid Pentapeptide BW443C, on Cough, Nociception and Ventilation in the Unanaesthetized Guinea-pig”, Br. J. Pharmacol., 93, 93-100 (1988). […]
Cylinder air is introduced into the exposure chamber at a flow rate of 1 liter/min, maintained by a needle valve and monitored by a rotameter. […]
Cough responses are induced by exposure to an aerosol of citric acid (1M) for 10 minutes. Animals are continuously monitored by trained observer, and the number of coughs are counted during a 15 minute period from commencement of the citric acid aerosol administration. […]
The three types of response are differentiated primarily by sound and visual observation. […] Each cough is marked on the Grass polygraph paper trace, and from these record numbers, frequency and time of onset of coughs are determined. […]
Quantities of drugs are weighed out and dissolved in a vehicle. […] The sequence of pre-treatment administration is determined according to a 4×4 Latin Square design. […]

In the case of `CCCCC[N+]1(C)CCCCC1C(=O)Nc1c(C)cccc1C.[I-]` (stereo not shown) [N-methyl-bupivacaine iodide, 2-{[(2,6-Dimethylphenyl)amino]carbonyl}-1-methyl-1-pentylpiperidinium iodide], the “inhibition of cough responses compared with vehicle pre-treated guinea pigs” value is reported as > 90%.
